# Assay results: patent US20130158075A1, “HETEROCYCLIC COMPOUNDS AS DGAT1 INHIBITORS” (PIRAMAL ENTERPRISES LIMITED, priority 2010, published 2013)
# Target: T1, hDGAT1 (Homo sapiens, UniProt O75907)
# T1 construct: made in house; host or cells: Sf9 insect cells (baculovirus); microsomal fraction
# T1 sequence (O75907 1-488): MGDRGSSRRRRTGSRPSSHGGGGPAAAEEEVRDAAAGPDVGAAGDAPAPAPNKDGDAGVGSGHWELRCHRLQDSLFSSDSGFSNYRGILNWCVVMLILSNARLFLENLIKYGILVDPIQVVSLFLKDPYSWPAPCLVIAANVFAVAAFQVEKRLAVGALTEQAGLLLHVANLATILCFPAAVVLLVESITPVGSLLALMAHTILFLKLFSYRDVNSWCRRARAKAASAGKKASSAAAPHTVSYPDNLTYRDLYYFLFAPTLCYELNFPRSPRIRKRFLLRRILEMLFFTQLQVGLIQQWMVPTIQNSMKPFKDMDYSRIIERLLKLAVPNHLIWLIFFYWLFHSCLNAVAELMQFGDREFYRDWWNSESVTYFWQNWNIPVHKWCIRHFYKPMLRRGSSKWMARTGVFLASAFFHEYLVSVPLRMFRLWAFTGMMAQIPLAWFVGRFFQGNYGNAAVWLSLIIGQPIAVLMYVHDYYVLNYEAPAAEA
# Assay: In-vitro DGAT1 assay with hDGAT1 microsomes from Sf9 cells (14C oleoyl CoA, scintillation counting)
# Assay type: biochemical
# Conditions: at 1 μM
# Method in brief: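 Microsomes from Sf9 cells infected with hDGAT1 baculovirus (MOI 5, harvested ~66-72 h) were incubated with [14C]oleoyl-CoA and 1,2-dioleoyl-sn-glycerol at 37 °C for 10 min, in duplicate. After alkaline ethanol stop, triglycerides were heptane-extracted and counted by liquid scintillation; percent inhibition was plotted against compound concentration (nM).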
row,SMILES,Percentage inhibition of hDGAT1
1,"O=C(O)CC1CCC(c2ncc(-c3ccc(NC(=O)c4nc(-c5ccccc5)oc4C(F)(F)F)cc3)s2)CC1 (centres unmarked) [Example 370, 2-(4-(5-(4-(2-Phenyl-5-(trifluoromethyl)oxazole-4-carboxamido)phenyl)thiazol-2-VI)cyclohexyl)acetic acid]",++ (>50 % Inhibition)
2,"CC(=O)NC(=O)CC1CCC(c2ncc(-c3ccc(NC(=O)c4c(F)cccc4F)cc3)s2)CC1 (centres unmarked) [Example 403, N-(4-(2-(4-(2-Acetamido-2-oxoethyl)cyclohexyl)thiazol-5-yl)phenyl)-2,6-difluoro benzamide]",+ (20-50% Inhibition)
3,CC(C)(O)CC1CCC(c2ncc(-c3ccc(NC(=O)Nc4cc(F)c(F)cc4F)cc3)s2)CC1 (centres unmarked) [Example 409],++ (>50 % Inhibition)

# Same assay, conditions: read-out: Percentage inhibition of hDGAT1
row,SMILES,inhibition at 1 µM [%]
1,"O=C(O)CC1CCC(c2ncc(-c3ccc(NC(=O)Nc4c(F)cc(F)cc4F)cc3)s2)CC1 (centres unmarked) [Example 360, 2-(4-(5-(4-(3-(2,4,6-Trifluorophenyl)ureido)phenyl)thiazol-2-yl)cyclohexyl)acetic acid]",> 50
2,"O=C(O)CC1CCC(c2ncc(-c3ccc(NC(=O)Nc4ccc(F)cc4F)cc3)s2)CC1 (centres unmarked) [Example 362, 2-(4-(5-(4-(3-(2,4-Difluorophenyl)ureido)phenyl)thiazol-2-yl)cyclohexyl)acetic acid]",> 50
3,"O=C(O)CC1CCC(c2ncc(-c3ccc(NC(=O)c4ccc(Cl)cc4Cl)cc3)s2)CC1 (centres unmarked) [Example 364, 2-(4-(5-(4-(2,4-Dichlorobenzamido)phenyl)thiazol-2-yl)cyclohexyl)acetic acid]",> 50
4,"O=C(O)CC1CCC(c2ncc(-c3ccc(NC(=O)c4c(F)cccc4C(F)(F)F)cc3)s2)CC1 (centres unmarked) [Example 366, 2-(4-(5-(4-(2-Fluoro-6-(trifluoromethyl)benzamido)phenyl)thiazol-2-yl)cyclohexyl)acetic acid]",> 50
5,"O=C(O)CC1CCC(c2ncc(-c3ccc(NC(=O)Nc4cc(F)c(F)c(F)c4)cc3)s2)CC1 (centres unmarked) [Example 368, 2-(4-(5-(4-(3-(3,4,5-Trifluorophenyl)ureido)phenyl)thiazol-2-yl)cyclohexyl)acetic acid]",> 50
6,"Cc1oc(-c2ccccc2)nc1C(=O)Nc1ccc(-c2cnc(C3CCC(CC(=O)O)CC3)s2)cc1 (centres unmarked) [Example 372, 2-(4-(5-(4-(5-Methyl-2-phenyloxazole-4-carboxamido)phenyl)thiazol-2-yl)cyclohexyl)acetic acid]",> 50
7,"O=C(O)CC1CCC(c2ncc(-c3ccc(NC(=S)Nc4ccccc4F)cc3)s2)CC1 (centres unmarked) [Example 374, 2-(4-(5-(4-(3-(2-Fluorophenyl)thioureido)phenyl)thiazol-2-yl)cyclohexyl)acetic acid]",> 50
8,"Cc1nnc(CC2CCC(c3ncc(-c4ccc(NC(=O)Nc5ccc(F)cc5F)cc4)s3)CC2)o1 (centres unmarked) [Example 379, 1-(2,4-Difluorophenyl)-3-(4-(2-(4-((5-methyl-1,3,4-oxadiazol-2-yl)methyl)cyclohexyl)thiazol-5-yl)phenyl)urea]",> 50
9,"Cc1nnc(CC2CCC(c3ncc(-c4ccc(NC(=O)Nc5ccccc5Cl)cc4)s3)CC2)o1 (centres unmarked) [Example 380, 1-(2-Chlorophenyl)-3-(4-(2-(4-((5-methyl-1,3,4-oxadiazol-2-yl)methyl)cyclohexyl)thiazol-5-yl)phenyl)urea]",20 to 50
10,"Cc1nnc(CC2CCC(c3ncc(-c4ccc(NC(=O)Nc5cc(F)cc(F)c5)cc4)s3)CC2)o1 (centres unmarked) [Example 381, 1-(3,5-Difluorophenyl)-3-(4-(2-(4-((5-methyl-1,3,4-oxadiazol-2-yl)methyl)cyclohexyl)thiazol-5-yl)phenyl)urea]",> 50
11,"Cc1nnc(CC2CCC(c3ncc(-c4ccc(NC(=O)Nc5cc(F)c(F)cc5F)cc4)s3)CC2)o1 (centres unmarked) [Example 382, 1-(4-(2-(4-((5-Methyl-1,3,4-oxadiazol-2-yl)methyl)cyclohexyl)thiazol-5-yl)phenyl)-3-(2,4,5-trifluorophenyl)urea]",> 50
12,"Cc1nnc(CC2CCC(c3ncc(-c4ccc(NC(=O)Nc5c(F)cc(F)cc5F)cc4)s3)CC2)o1 (centres unmarked) [Example 383, 1-(4-(2-(4-((5-Methyl-1,3,4-oxadiazol-2-yl)methyl)cyclohexyl)thiazol-5-yl)phenyl)-3-(2,4,6-trifluorophenyl)urea]",> 50
13,"Cc1nnc(CC2CCC(c3ncc(-c4ccc(NC(=O)c5c(F)cccc5F)cc4)s3)CC2)o1 (centres unmarked) [Example 385, 2,6-Difluoro-N-(4-(2-(4-((5-methyl-1,3,4-oxadiazol-2-yl)methyl)cyclohexyl)thiazol-5-yl)phenyl)benzamide]",20 to 50
14,"Cc1noc(CC2CCC(c3ncc(-c4ccc(NC(=O)Nc5ccccc5Cl)cc4)s3)CC2)n1 (centres unmarked) [Example 390, 1-(2-Chlorophenyl)-3-(4-(2-(4-((3-methyl-1,2,4-oxadiazol-5-yl)methyl)cyclohexyl)thiazol-5-yl)phenyl)urea]",> 50
15,"Cc1noc(CC2CCC(c3ncc(-c4ccc(NC(=O)Nc5ccccc5F)cc4)s3)CC2)n1 (centres unmarked) [Example 391, 1-(2-Fluorophenyl)-3-(4-(2-(4-((3-methyl-1,2,4-oxadiazol-5-yl)methyl)cyclohexyl)thiazol-5-yl)phenyl)urea]",> 50
16,"Cc1noc(CC2CCC(c3ncc(-c4ccc(NC(=O)Nc5cc(F)cc(F)c5)cc4)s3)CC2)n1 (centres unmarked) [Example 392, 1-(3,5-Difluorophenyl)-3-(4-(2-(4-((3-methyl-1,2,4-oxadiazol-5-yl)methyl)cyclohexyl)thiazol-5-yl)phenyl)urea]",> 50
17,"Cc1noc(CC2CCC(c3ncc(-c4ccc(NC(=O)Nc5cc(F)c(F)cc5F)cc4)s3)CC2)n1 (centres unmarked) [Example 393, 1-(4-(2-(4-((3-Methyl-1,2,4-oxadiazol-5-yl)methyl)cyclohexyl)thiazol-5-yl)phenyl)-3-(2,4,5-trifluorophenyl)urea]",> 50
18,"Cc1noc(CC2CCC(c3ncc(-c4ccc(NC(=O)Nc5ccc(F)cc5F)cc4)s3)CC2)n1 (centres unmarked) [Example 394, 1-(2,4-Difluorophenyl)-3-(4-(2-(4-((3-methyl-1,2,4-oxadiazol-5-yl)methyl)cyclohexyl)thiazol-5-yl)phenyl)urea]",> 50
19,"Cc1noc(CC2CCC(c3ncc(-c4ccc(NC(=O)c5c(F)cccc5F)cc4)s3)CC2)n1 (centres unmarked) [Example 396, 2,6-Difluoro-N-(4-(2-(4-((3-methyl-1,2,4-oxadiazol-5-yl)methyl)cyclohexyl)thiazol-5-yl)phenyl)benzamide]",20 to 50
20,"CC(=O)NC(=O)CC1CCC(c2ncc(-c3ccc(NC(=O)Nc4ccccc4Cl)cc3)s2)CC1 (centres unmarked) [Example 400, N-Acetyl-2-(4-(5-(4-(3-(2-chlorophenyl)ureido)phenyl)thiazol-2-yl)cyclohexyl)acetamide]",> 50
21,"CC(=O)NC(=O)CC1CCC(c2ncc(-c3ccc(NC(=O)Nc4ccc(F)cc4F)cc3)s2)CC1 (centres unmarked) [Example 401, N-Acetyl-2-(4-(5-(4-(3-(2,4-difluorophenyl)ureido)phenyl)thiazol-2-yl)cyclohexyl)acetamide]",> 50
22,"CC(=O)NC(=O)CC1CCC(c2ncc(-c3ccc(NC(=O)Nc4cc(F)c(F)cc4F)cc3)s2)CC1 (centres unmarked) [Example 402, N-Acetyl-2-(4-(5-(4-(3-(2,4,5-trifluorophenyl)ureido)phenyl)thiazol-2-yl)cyclohexyl)acetamide]",> 50
23,"CC(C)(O)C1CCC(c2ncc(-c3ccc(NC(=O)Nc4ccccc4Cl)cc3)s2)CC1 (centres unmarked) [Example 404, 1-(2-Chlorophenyl)-3-(4-(2-(4-(2-hydroxypropan-2-yl)cyclohexyl)thiazol-5-yl)phenyl)urea]",> 50
24,"CC(C)(O)C1CCC(c2ncc(-c3ccc(NC(=O)Nc4cc(F)cc(F)c4)cc3)s2)CC1 (centres unmarked) [Example 405, 1-(3,5-Difluorophenyl)-3-(4-(2-(4-(2-hydroxypropan-2-yl)cyclohexyl)thiazol-5-yl)phenyl)urea]",> 50
25,"CC(C)(O)C1CCC(c2ncc(-c3ccc(NC(=O)Nc4ccc(F)cc4F)cc3)s2)CC1 (centres unmarked) [Example 406, 1-(2,4-Difluorophenyl)-3-(4-(2-(4-(2-hydroxypropan-2-yl)cyclohexyl)thiazol-5-yl)phenyl)urea]",> 50
26,"CC(C)(O)CC1CCC(c2ncc(-c3ccc(NC(=O)Nc4ccc(F)cc4F)cc3)s2)CC1 (centres unmarked) [Example 407, 1-(2,4-Difluorophenyl)-3-(4-(2-(4-(2-hydroxy-2-methylpropyl)cyclohexyl)thiazol-5-yl)phenyl)urea]",> 50
27,"CC(C)(O)CC1CCC(c2ncc(-c3ccc(NC(=O)Nc4cc(F)cc(F)c4)cc3)s2)CC1 (centres unmarked) [Example 408, 1-(3,5-Difluorophenyl)-3-(4-(2-(4-(2-hydroxy-2-methylpropyl)cyclohexyl)thiazol-5-yl)phenyl)urea]",> 50
28,"NNC(=O)CC1CCC(c2ncc(-c3ccc(NC(=O)Nc4cc(F)cc(F)c4)cc3)s2)CC1 (centres unmarked) [Example 410, 1-(3,5-Difluorophenyl)-3-(4-(2-(4-(2-hydrazinyl-2-oxoethyl)cyclohexyl)thiazol-5-yl)phenyl)urea]",> 50
29,"Cc1nnc(CC2CCC(c3ncc(-c4ccc(N)cc4)s3)CC2)s1 (centres unmarked) [Example 413, 4-(2-(4-((5-Methyl-1,3,4-thiadiazol-2-yl)methyl)cyclohexyl)thiazol-5-yl)aniline]",> 50
